Experimental findings from patent publication US20230167073A1 (Teijin Pharma Limited, priority 2020, published 2023) are described below.

Where two headings read alike, the source gives them in different places. A value given as a limit tells only on which side of the number the result lay.

The target in the assay is T1, Human TRPC6 (Homo sapiens, UniProt Q9Y210).
T1 construct: expressed in transfected cells
T1 sequence (Q9Y210 1-931): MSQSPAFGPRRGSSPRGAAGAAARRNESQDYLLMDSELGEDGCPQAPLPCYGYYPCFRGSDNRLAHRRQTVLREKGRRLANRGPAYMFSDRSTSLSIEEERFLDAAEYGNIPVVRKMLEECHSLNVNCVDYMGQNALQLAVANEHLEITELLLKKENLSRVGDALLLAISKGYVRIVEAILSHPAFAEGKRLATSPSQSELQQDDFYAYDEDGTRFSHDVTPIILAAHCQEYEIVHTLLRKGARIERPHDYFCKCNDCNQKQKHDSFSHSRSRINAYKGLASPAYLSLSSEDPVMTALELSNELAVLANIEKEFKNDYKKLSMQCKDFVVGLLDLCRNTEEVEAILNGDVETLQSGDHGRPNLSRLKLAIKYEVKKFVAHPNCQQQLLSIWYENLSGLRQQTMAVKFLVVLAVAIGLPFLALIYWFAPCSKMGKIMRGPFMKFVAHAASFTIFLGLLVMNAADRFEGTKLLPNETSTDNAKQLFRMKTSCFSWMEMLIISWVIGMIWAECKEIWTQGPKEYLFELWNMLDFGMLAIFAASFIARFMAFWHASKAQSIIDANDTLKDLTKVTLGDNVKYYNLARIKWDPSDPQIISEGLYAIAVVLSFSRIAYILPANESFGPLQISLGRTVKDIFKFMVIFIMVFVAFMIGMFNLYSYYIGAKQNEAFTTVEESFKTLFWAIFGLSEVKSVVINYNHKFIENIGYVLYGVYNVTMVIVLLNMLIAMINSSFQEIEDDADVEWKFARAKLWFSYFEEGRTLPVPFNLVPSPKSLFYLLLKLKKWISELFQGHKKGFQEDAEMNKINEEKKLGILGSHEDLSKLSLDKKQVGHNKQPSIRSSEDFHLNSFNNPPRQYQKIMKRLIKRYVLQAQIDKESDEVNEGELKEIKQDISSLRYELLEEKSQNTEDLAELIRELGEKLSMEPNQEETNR
Description: Evaluation of TRPC6 channel inhibitory activity (1), FLIPR Calcium 5 Assay Kit, OAG stimulation (Compound Nos. 1-1293). Format: cell-based. In a few lines:
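Cells stably expressing human TRPC6, plated 24 h before, were loaded 30 min with Calcium 5 dye plus probenecid in HEPES-HBSS. Compound was added 20 min before OAG (30 μM final) and fluorescence tracked on FLIPR. Inhibition normalised to no-compound and no-compound/no-OAG wells; pIC50 from four-parameter fit, reported as +/++/+++ categories.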

[1] abbreviates: Human TRPC6 stably-expressing cells, OAG 30 μM, FLIPR Calcium 5 Assay Kit, read-out: Inhibitory activity (pIC50 class) (converted).

Turning to `Cn1nc(-c2ccccn2)cc1Oc1cc(C#N)ccc1-c1ncc(CNC2(C)COC2)cn1` [compound 665, 4-[5-[[(3-methyloxetan-3-yl)amino]methyl]pyrimidin-2-yl]-3-(2-methyl-5-pyridin-2-ylpyrazol-3-yl)oxybenzonitrile], the IC50 under setting [1] is more than 1 µM.

As to `Cn1nc(-c2ccccn2)cc1Oc1cc(C#N)ccc1-c1ncc(CNC23CC4CC(CC(C4)C2)C3)cn1` [compound 666, 4-[5-[(1-adamantylamino)methyl]pyrimidin-2-yl]-3-(2-methyl-5-pyridin-2-ylpyrazol-3-yl)oxybenzonitrile], the IC50 under setting [1] was more than 1 µM.

`Cc1nc(Oc2cc(C#N)ccc2-c2ccc(CC3(N)COC3)cn2)cc(N2CCC(F)CC2)n1` [compound 667, 4-[5-[(3-aminooxetan-3-yl)methyl]pyridin-2-yl]-3-[6-(4-fluoropiperidin-1-yl)-2-methylpyrimidin-4-yl]oxybenzonitrile]: the IC50 under setting [1] is 0.01 to 1 µM.

For the compound `Cc1nc(Oc2cc(C#N)ccc2-c2ncc(CCN)cn2)cc(N2CCC(F)CC2)n1` [compound 668, 4-[5-(2-aminoethyl)pyrimidin-2-yl]-3-[6-(4-fluoropiperidin-1-yl)-2-methylpyrimidin-4-yl]oxybenzonitrile], under setting [1], the IC50 was less than 0.01 µM.

In the case of `Cc1nc(Oc2cc(C#N)ccc2-c2ncc(CN)cn2)cc(N2CCC(F)CC2)n1` [compound 669, 4-[5-(aminomethyl)pyrimidin-2-yl]-3-[6-(4-fluoropiperidin-1-yl)-2-methylpyrimidin-4-yl]oxybenzonitrile], under setting [1], the IC50 was 0.01 to 1 µM.

`Cc1nc(Oc2cc(C#N)ccc2-c2ncc(CCN)cn2)cc(N2C3CCC2CC3)n1` [compound 671, 4-[5-(2-aminoethyl)pyrimidin-2-yl]-3-[6-(7-azabicyclo[2.2.1]heptan-7-yl)-2-methylpyrimidin-4-yl]oxybenzonitrile]: the IC50 was less than 0.01 µM.

Turning to `Cc1nc(Oc2cc(C#N)ccc2-c2ncc(CN)cn2)cc(N2C3CCC2CC3)n1` [compound 672, 4-[5-(aminomethyl)pyrimidin-2-yl]-3-[6-(7-azabicyclo[2.2.1]heptan-7-yl)-2-methylpyrimidin-4-yl]oxybenzonitrile], the IC50 is less than 0.01 µM.

As for `Cc1nc(Oc2cc(C#N)ccc2-c2ccc(CC3(N)COC3)cn2)cc(N2CCC[C@H]2C#N)n1` [compound 673, (2S)-1-[6-[2-[5-[(3-aminooxetan-3-yl)methyl]pyridin-2-yl]-5-cyanophenoxy]-2-methylpyrimidin-4-yl]pyrrolidine-2-carbonitrile], the IC50 under setting [1] was more than 1 µM.

As to `Cc1nc(Oc2cc(C#N)ccc2-c2ncc(CCN)cn2)cc(N2CCC[C@H]2C#N)n1` [compound 674, (2S)-1-[6-[2-[5-(2-aminoethyl)pyrimidin-2-yl]-5-cyanophenoxy]-2-methylpyrimidin-4-yl]pyrrolidine-2-carbonitrile], the IC50 under setting [1] was 0.01 to 1 µM.

With `Cc1nc(Oc2cc(C#N)ccc2-c2ncc(CN)cn2)cc(N2CCC[C@H]2C#N)n1` [compound 675, (2S)-1-[6-[2-[5-(aminomethyl)pyrimidin-2-yl]-5-cyanophenoxy]-2-methylpyrimidin-4-yl]pyrrolidine-2-carbonitrile], the IC50 under setting [1] is 0.01 to 1 µM.

Consider `Cc1cc(Oc2cc(C#N)ccc2-c2ncc(CN)cn2)no1` [compound 676, 4-[5-(aminomethyl)pyrimidin-2-yl]-3-[(5-methyl-1,2-oxazol-3-yl)oxy]benzonitrile], for which, under setting [1], the IC50 was more than 1 µM.

In the case of `Cc1cc(Oc2cc(C#N)ccc2-c2ncc(CCN)cn2)no1` [compound 677, 4-[5-(2-aminoethyl)pyrimidin-2-yl]-3-[(5-methyl-1,2-oxazol-3-yl)oxy]benzonitrile], the IC50 under setting [1] is more than 1 µM.

Take `Cn1nc2c(c1Oc1cc(C#N)ccc1-c1ncc(CN)cn1)CCC2` [compound 678, 4-[5-(aminomethyl)pyrimidin-2-yl]-3-[(2-methyl-5,6-dihydro-4H-cyclopenta[c]pyrazol-3-yl)oxy]benzonitrile]: under setting [1], the IC50 is more than 1 µM.

As for `Cn1nc2c(c1Oc1cc(C#N)ccc1-c1ncc(CN)cn1)COCC2` [compound 679, 4-[5-(aminomethyl)pyrimidin-2-yl]-3-[(2-methyl-6,7-dihydro-4H-pyrano[4,3-c]pyrazol-3-yl)oxy]benzonitrile], under setting [1], the IC50 was more than 1 µM.

Consider `Cn1nc(C2CC2)cc1Oc1cc(C#N)ccc1-c1nccc(CN)n1` [compound 680, 4-[4-(aminomethyl)pyrimidin-2-yl]-3-(5-cyclopropyl-2-methylpyrazol-3-yl)oxybenzonitrile], for which, under setting [1], the IC50 was more than 1 µM.

Turning to `Cc1cc(Oc2cc(C#N)ccc2-c2nccc(CN)n2)cc(N2CCOCC2)n1` [compound 681, 4-[4-(aminomethyl)pyrimidin-2-yl]-3-(2-methyl-6-morpholin-4-ylpyridin-4-yl)oxybenzonitrile], the IC50 under setting [1] was more than 1 µM.

As for `Cn1nc(-c2ccccn2)cc1Oc1cc(C#N)ccc1-c1nccc(CN)n1` [compound 682, 4-[4-(aminomethyl)pyrimidin-2-yl]-3-(2-methyl-5-pyridin-2-ylpyrazol-3-yl)oxybenzonitrile], the IC50 under setting [1] was 0.01 to 1 µM.

For `Cn1nc2c(c1Oc1cc(C#N)ccc1-c1cc(CCN)ccn1)CCC2` [compound 683, 4-[4-(2-aminoethyl)pyridin-2-yl]-3-[(2-methyl-5,6-dihydro-4H-cyclopenta[c]pyrazol-3-yl)oxy]benzonitrile], the IC50 under setting [1] is more than 1 µM.

`Cn1nc2c(c1Oc1cc(C#N)ccc1-c1ncc(CN)cn1)CCCC2` [compound 684, 4-[5-(aminomethyl)pyrimidin-2-yl]-3-[(2-methyl-4,5.6,7-tetrahydroindazol-3-yl)oxy]benzonitrile]: the IC50 under setting [1] is more than 1 µM.

`Cn1nc2c(c1Oc1cc(C#N)ccc1-c1nccc(CN)n1)CCCC2` [compound 685, 4-[4-(aminomethyl)pyrimidin-2-yl]-3-[(2-methyl-4,5,6,7-tetrahydroindazol-3-yl)oxy]benzonitrile]: the IC50 under setting [1] was more than 1 µM.

For `Cc1cc(Oc2cc(C#N)ccc2-c2ncc(CCN)cn2)cc(-c2ncccn2)n1` [compound 686, 4-[5-(2-aminoethyl)pyrimidin-2-yl]-3-(2-methyl-6-pyrimidin-2-ylpyridin-4-yl)oxybenzonitrile], the IC50 under setting [1] is more than 1 µM.

As for `Cc1cc(Oc2cc(C#N)ccc2-c2ncc(CCN)cn2)cc(-c2nccn2C)n1` [compound 687, 4-[5-(2-aminoethyl)pyrimidin-2-yl]-3-[2-methyl-6-(1-methylimidazol-2-yl)pyridin-4-yl]oxybenzonitrile], the IC50 under setting [1] is more than 1 µM.

With `Cc1cc(Oc2cc(C#N)ccc2-c2ncc([C@H](O)CN)cn2)cc(-c2ccccn2)n1` [compound 688, 4-[5-[(1S)-2-amino-1-hydroxyethyl]pyrimidin-2-yl]-3-(2-methyl-6-pyridin-2-ylpyridin-4-yl)oxybenzonitrile], the IC50 under setting [1] was 0.01 to 1 µM.

In the case of `Cc1cc(Oc2cc(C#N)ccc2-c2ccc([C@H](O)CN)cn2)cc(-c2nccs2)n1` [compound 689, 4-[5-[(1S)-2-amino-1-hydroxyethyl]pyridin-2-yl]-3-[2-methyl-6-(1,3-thiazol-2-yl)pyridin-4-yl]oxybenzonitrile], the IC50 under setting [1] is 0.01 to 1 µM.

For `Cc1cc(Oc2cc(C#N)ccc2-c2ccc([C@H](O)CN)cn2)cc(-c2ncco2)n1` [compound 690, 4-[5-[(1S)-2-amino-1-hydroxyethyl]pyridin-2-yl]-3-[2-methyl-6-(1,3-oxazol-2-yl)pyridin-4-yl]oxybenzonitrile], the IC50 under setting [1] was 0.01 to 1 µM.

Take `Cc1cc(Oc2cc(C#N)ccc2-c2ccc([C@H](O)CN)cn2)cc(-c2ccccn2)n1` [compound 691, 4-[5-[(1S)-2-amino-1-hydroxyethyl]pyridin-2-yl]-3-(2-methyl-6-pyridin-2-ylpyridin-4-yl)oxybenzonitrile]: the IC50 under setting [1] was less than 0.01 µM.

Consider `Cc1cc(Oc2cc(C#N)ccc2-c2ccc([C@H](O)CN)cn2)cc(-c2ncccn2)n1` [compound 692, 4-[5-[(1S)-2-amino-1-hydroxyethyl]pyridin-2-yl]-3-(2-methyl-6-pyrimidin-2-ylpyridin-4-yl)oxybenzonitrile], for which the IC50 under setting [1] was more than 1 µM.

In the case of `Cc1cc(Oc2cc(C#N)ccc2-c2ccc([C@H](O)CN)cn2)cc(-c2cnccn2)n1` [compound 693, 4-[5-[(1S)-2-amino-1-hydroxyethyl]pyridin-2-yl]-3-(2-methyl-6-pyrazin-2-ylpyridin-4-yl)oxybenzonitrile], under setting [1], the IC50 is 0.01 to 1 µM.
